Test results reported in paper PMC12146338, “Bioanalytical assay for the quantification of rucaparib in rat plasma using UPLC-MS/MS: development, and validation for interaction with myricetin” (Frontiers in Pharmacology, 2025).

Key:
[1] = Stability of rucaparib in rat plasma under different storage conditions (UPLC-MS/MS); assay type: in vitro ADME; details: n = 5
Description: The stability experiment was conducted at three different QCs (5.0, 200, and 400 ng/mL). It was carried out under various storage conditions, with each condition having five replicates (n = 5). These storage conditions encompassed stability within the analyzer (lasting for 4 h at 10°C), long-term storage (for 3 weeks at −80°C), short-term storage (for 3 h at room temperature) and freeze-thaw cycles (conducted three times).
The stability of rucaparib in rat plasma was examined under four distinct storage conditions. These included short-term storage (lasting 3 h at room temperature), exposure to three freeze-thaw cycles (transitioning from −80°C to room temperature), long-term storage (at −80°C for 21 days), and a 4 h placement in an autosampler maintained at 10°C.

[2] = Drug-drug interaction (DDI) pharmacokinetic study of rucaparib with or without myricetin in rats
Description: Twelve Sprague-Dawley (SD) male rats were provided with an appropriate environment with unrestricted water and food for seven consecutive days prior to the experiment. The day prior to the study, the rats underwent a 12-h period of fasting while being allowed unfettered access to water. Subsequently, they were randomly assigned to two groups (n = 6). Group A was received an oral dose of rucaparib at 20 mg/kg, while Group B was received an oral administration of rucaparib at 20 mg/kg along with myricetin at 50 mg/kg. The doses of rucaparib ([Augustine et al., 2019]) and myricetin ([Ye et al., 2024]) administered were determined based on prior literatures. Rucaparib was formulated in corn oil with myricetin prepared in 0.5% carboxymethylcellulose sodium (CMC-Na) solution. Group B rats were administered a single gavage of 50 mg/kg of myricetin, while Group A rats were received an equivalent volume of CMC-Na solution. Subsequently, at the 30 min mark, both groups were administered a single dose of 20 mg/kg of rucaparib. Before dosing (designated as 0 h) and at 1.5, 3, 4, 5, 6, 8, 12, 24 and 36 h post-dosing, 0.3 mL of plasma samples were drawn from the caudal vein. These samples were collected into heparin-containing tubes and then centrifuged at 8,000 rpm at 4°C for 10 min. Afterwards, the plasma was transferred to new tubes and preserved at −80°C for further analysis.
The DAS 3.0 software was used to calculate the pharmacokinetic parameters of rucaparib using a non-compartmental model. The key pharmacokinetic parameters of the two groups were analyzed using an independent samples t-test in SPSS 24.0. The p-value of less than 0.05 indicated a significant difference between the two groups. Mean plasma concentration-time curves were generated with GraphPad Prism 9.0 software (GraphPad Software Inc., California, United States).

[3] = set-up: method as in Ross and Kasum, 2002; details: ref Ross and Kasum, 2002; cited from earlier work
CYP2D6 = tested on: CYP2D6; set-up: method as in Lee et al., 2012; details: ref Lee et al., 2012; read-out: half-maximal inhibitory concentrations value, CYP2D6 metabolism; cited from earlier work
[4] = male, Sprague-Dawley, rat, in vivo, po, 20 mg/kg

CNCc1ccc(-c2[nH]c3cc(F)cc4c3c2CCNC4=O)cc1 [Rucaparib]
Stability RE (%) ([1]; added 5.0 ng/mL, Autosampler 10°C, 4 h): 1.5% | Stability RE (%) ([1]; added 5.0 ng/mL, Room temperature, 3 h): −4.2% | Stability RE (%) ([1]; added 5.0 ng/mL, Three freeze-thaw): −10.1% | Stability RE (%) ([1]; added 5.0 ng/mL, −80°C, 3 weeks): 5.7% | Stability RE (%) ([1]; added 200 ng/mL, Autosampler 10°C, 4 h): 1.4% | Stability RE (%) ([1]; added 200 ng/mL, Room temperature, 3 h): −11.5% | Stability RE (%) ([1]; added 200 ng/mL, Three freeze-thaw): −1.6% | Stability RE (%) ([1]; added 200 ng/mL, −80°C, 3 weeks): 9.2% | Stability RE (%) ([1]; added 400 ng/mL, Autosampler 10°C, 4 h): 8.1% | Stability RE (%) ([1]; added 400 ng/mL, Room temperature, 3 h): −3.1% | Stability RE (%) ([1]; added 400 ng/mL, Three freeze-thaw): −11.6% | Stability RE (%) ([1]; added 400 ng/mL, −80°C, 3 weeks): 1.4% | AUC(0-inf) [2, 4]: 1320 ng·h/mL | AUC(0-t) [2, 4]: 1220 ng·h/mL | CL/F [2, 4]: 294 mL/min/kg | Cmax [2, 4]: 126 ± 58.5 ng/mL | Tmax [2, 4]: 4.25 ± 1.78 h | half-life [2, 4]: 10.9 ± 3.41 h

O=c1c(O)c(-c2cc(O)c(O)c(O)c2)oc2cc(O)cc(O)c12 [myricetin]
effect on plasma exposure to rucaparib ([2]; rats, 50 mg/kg myricetin + 20 mg/kg rucaparib vs rucaparib alone, independent samples t-test, p < 0.05): no significant effect | bioavailability [3]: low bioavailability | IC50 (CYP2D6): 57 µM
